Results reported in US20050050587A1, “Inducers of plant disease resistance” (priority 2003, published 2005).

Tests used:
Assay type in all cases: in vivo, Nicotiana tabacum (Xanthi nc)
[1] = tested on: tobacco mosaic virus (TMV); experiment: Resistance measurement: TMV lesion diameter after spray application; conditions: for Percent decrease in TMV-lesion diameter: percent reduction in the diameter of TMV lesions
Protocol: (§1) Tobacco (Nicotiana tabacum) plants (Xanthi nc) were grown in Promix PGX at 25 C and a 16/8 h photoperiod. Plants were fed a 1 g/L concentration of 20-20-20 (N-P-K fertilizer) twice a week. The Xanthi-nc variety carries the N-gene for resistance to TMV.
(§2) Test compounds were dissolved in ETOH and dispersed in water (0.1% v/v ethanol). Spray solutions were amended with 0.25% crop oil concentrate (v/v). Plants were sprayed to drip, and moved to a glasshouse.
After spraying, one leaf per plant was inoculated with 1.0 ug TMV (U1; vulgare strain) at the times indicated. Six days post-inoculation, leaves were removed and the diameters of 20 necrotic lesions were measured per leaf. The mean lesion diameters from at least four plants per treatment were measured. Lesion diameter measures were subjected to two way analysis of variance (ANOVA) and Duncan's multiple range procedure at p=0.05.

[2] = tested on: PR-1a protein; experiment: Induction and quantification of PR-1a protein after leaf infiltration of tobacco; conditions: for PR-1a protein following treatment, 96 h / PR-1a protein following treatment, 192 h: compared to 1 mM SA at 96 h; for PR-1a induction, result in words: leaf infiltration
Protocol: as §1
For evaluating pathogenesis-related protein induction, test compounds were dissolved in ethanol and dispersed in water (0.1% v/v ethanol). The most recently fully-expanded leaf on each plant was selected for infiltration. Infiltration was accomplished using a 5 mL disposable syringe (without needle). The solution was forced through the stomates of the abaxial surface of the leaf. Treatment solution was infiltrated into the leaf until the leaf was saturated.
All harvests were performed 96 hours after infiltration unless indicated. Briefly, treated leaves were de-veined, the remaining tissue was cut into 1 cm×1 cm pieces and vacuum-infiltrated with ice-cold extraction buffer. […] The extracellular fluid containing the acidic PR-1a protein was collected by centrifugation at 1000 g for 10 minutes at 4° C. After collection, samples were stored at −80° C. Protein concentrations of extracellular fluids were determined by Bradford dye reagent (BioRad, Richmond, Calif.) used BSA as a standard. Eight to ten μg of each protein sample were analyzed by electrophoresis on 14% Native Polyacrylamide gels (14% pre-cast Tris-Glycine gels; Invitrogen, Carlsbad, Calif.). Gels were stained with colloidal blue staining reagent (Invitrogen), and PR-1a protein was quantitated using a Model GS-710 densitometer (BioRad).

[3] = tested on: PR-1a protein; experiment: Induction of PR-1a protein in Xanthi-nc tobacco after spray application; conditions: which equals 1
Protocol: as §1, with “TMV. Plants were treated with chemicals and/or virus at 5-6 weeks after sowing, when they had 5-7 fully-expanded leaves.” for “TMV.”
Proteins were harvested by the method of Yalpani et al. (1991; Plant Cell. 3:809-818). All harvests were performed 96 hours after infiltration unless indicated. Briefly, treated leaves were de-veined, the remaining tissue was cut into 1 cm×1 cm pieces and vacuum-infiltrated with ice-cold extraction buffer. Leaf tissue was blotted to remove excess buffer, and placed in a spin column assembly (Yalpani et al., 1991). The extracellular fluid containing the acidic PR-1a protein was collected by centrifugation at 1000 g for 10 minutes at 4° C. After collection, samples were stored at −80° C. Protein concentrations of extracellular fluids were determined by Bradford dye reagent (BioRad, Richmond, Calif.) used BSA as a standard. Eight to ten μg of each protein sample were analyzed by electrophoresis on 14% Native Polyacrylamide gels (14% pre-cast Tris-Glycine gels; Invitrogen, Carlsbad, Calif.). Gels were stained with colloidal blue staining reagent (Invitrogen), and PR-1a protein was quantitated using a Model GS-710 densitometer (BioRad).
as §2

[4] = 1 mM spray 48 h before TMV inoculation
[5] = 1 mM spray 96 h before TMV inoculation

## O=C(O)c1cc(F)ccc1O [5-Fluorosalicylic acid]
[1]
  Percent decrease in TMV-lesion diameter: 38.0%
[2]; 1 mM, which equals 1
  PR-1a protein following treatment, 96 h: 1.30
  PR-1a protein following treatment, 192 h: 1.74
[2]
  PR-1a induction, result in words: more induction at 96 hours than the corresponding chlorinated salicylates

## O=C(O)c1ccccc1 [Benzoic acid]
[2]
  PR-1a induction, result in words: unable to induce PR-1a accumulation

## O=C(O)c1cc([N+](=O)[O-])cc([N+](=O)[O-])c1O [3,5-Dinitrosalicylic acid]
[2]; 1 mM, 96 h post infiltration, compared to 1 mM SA, which equals 1
  Mean PR Induction (relative induction of PR-1a protein): 0
[2]
  PR-1a induction, result in words: completely deactivated

## O=C(O)c1cccc(F)c1O [3-Fluorosalicylic acid]
[1]
  Percent decrease in TMV-lesion diameter: 34.4%

## O=C(O)c1cc(Cl)ccc1O [5-Chlorosalicylic acid, reference compound]
[1]
  Percent decrease in TMV-lesion diameter: 38.7%
[2]; 1 mM, which equals 1
  PR-1a protein following treatment, 96 h: 1.02
  PR-1a protein following treatment, 192 h: 1.75

## COc1ccc(O)c(C(=O)O)c1 [5-Methoxysalicylic acid]
[1]
  Percent decrease in TMV-lesion diameter: 9.7%

## O=C(O)c1ccccc1S [Thiosalicylic acid]
[2]
  PR-1a induction, result in words: significantly reduced activity

## O=C(O)c1cc(F)cc(Cl)c1O [3-Chloro-5-fluorosalicylic acid]
[1]
  Percent decrease in TMV-lesion diameter: 34%

## O=C(O)c1ncccc1O [3-Hydroxypicolinic acid]
[2]
  PR-1a induction, result in words: induced PR-1a accumulation more than equimolar SA

## O=C(O)c1cc(Cl)cc(F)c1O [3-Fluoro-5-chlorosalicylic acid]
[1]
  Percent decrease in TMV-lesion diameter: 47.4%

## O=C(O)c1ccccc1O [Salicylic acid, reference compound]
[1]; [4]
  Lesion diameter: 2.20 BC mm
[1]; [5]
  Lesion diameter: 2.52 B mm
[1]; 5 mM spray 48 h before TMV inoculation
  Lesion diameter: 1.88 A mm
[1]; 5 mM spray 96 h before TMV inoculation
  Lesion diameter: 1.68 A mm
[2]; 1 mM, which equals 1
  PR-1a protein following treatment, 96 h: 1.00
  PR-1a protein following treatment, 192 h: 1.46

## COc1cccc(C(=O)O)c1O [3-Methoxysalicylic acid]
[1]
  Percent decrease in TMV-lesion diameter: 8.9%

## COc1cccc(O)c1C(=O)O [6-Methoxysalicylic acid]
[1]
  Percent decrease in TMV-lesion diameter: 13.3%

## O=C(O)c1cc(Cl)cc(Cl)c1O [3,5-Dichlorosalicylic acid, reference compound]
[1]
  Percent decrease in TMV-lesion diameter: 36.6%
[2]; 1 mM, which equals 1
  PR-1a protein following treatment, 96 h: 1.83
  PR-1a protein following treatment, 192 h: 4.66
[2]
  PR-1a induction, result in words: showed the greatest induction of PR-1a

## O=C(O)c1cc(F)cc(F)c1O [3,5-Difluorosalicylic acid]
[1]; [4]
  Lesion diameter: 2.04 AB mm
[1]; [5]
  Lesion diameter: 1.85 A mm
[1]
  Percent decrease in TMV-lesion diameter: 55.0%
[1]; spray application
  Reduction of TMV-lesion size / resistance to TMV, result in words: statistically equal to that induced by 5 mM Salicylic acid
[2]; 1 mM, which equals 1
  PR-1a protein following treatment, 96 h: 3.64
  PR-1a protein following treatment, 192 h: 3.21
[2]
  PR-1a induction, result in words: more induction at 96 hours than the corresponding chlorinated salicylates

## Salicylic acid/Sodiumsalicylate [reference compound]
[1]
  Percent decrease in TMV-lesion diameter: 30.1%
[2]; 1 mM, 96 h post infiltration, compared to 1 mM SA, which equals 1 (Table 5)
  Mean PR Protein Induction: 1.0

## O=C(O)c1cc([N+](=O)[O-])ccc1O [5-Nitrosalicylic acid]
[2]
  PR-1a induction, result in words: decreased activity

## O=C(O)c1c(O)c(Cl)cc(Cl)c1Cl [3,5,6-Trichlorosalicylic acid]
[1]
  Percent decrease in TMV-lesion diameter: 45.1%

## CCOC(=O)C(C)OC(=O)c1cc(Oc2ccc(C(F)(F)F)cc2Cl)ccc1[N+](=O)[O-] (centres unmarked) [Lactofen, 1-(carboxyethoxy) ethyl 5-[2-chloro-4-(tri-fluoromethyl)phenoxy]-2-nitrobenzoate]
[3]; 290 ppm Lactofen, harvested 96 hours after spray application, compared to 1 mM SA
  PR-1a (relative induction): 0.44
[3]; 1450 ppm Lactofen, harvested 96 hours after spray application, compared to 1 mM SA
  PR-1a (relative induction): 2.00

## O=C(O)c1c(O)cccc1F [6-Fluorosalicylic acid]
[1]
  Percent decrease in TMV-lesion diameter: 24.3%

## O=C(O)c1c(O)c(Cl)cc(Cl)c1O [3,5-Dichloro-6-hydroxysalicylic acid]
[1]
  Percent decrease in TMV-lesion diameter: 48.3%

## O=C(O)c1ccc(F)cc1O [4-Fluorosalicylic acid]
[1]
  Percent decrease in TMV-lesion diameter: 36.2%

## O=C([O-])c1ccccc1O.[Na+] [NaSA, sodium salicylate]
[1]; NaSA 1600 mg/l, 48 hours after application
  Lesion diameter: 1.17 B mm
[1]; NaSA 1600 mg/l, 96 hours after application
  Lesion diameter: 1.75 AB mm
[3]; 1600 ppm NaSA, harvested 96 hours after spray application, compared to 1 mM SA
  PR-1a (relative induction): 1.00
[3]; 8000 ppm NaSA, harvested 96 hours after spray application, compared to 1 mM SA
  PR-1a (relative induction): 4.56
[3]; NaSA 1600 mg/l, 48 hours after application, compared to infiltration with 1 mM SA at 96 h
  PR-1a (relative induction): 0.34
[3]; NaSA 1600 mg/l, 96 hours after application, compared to infiltration with 1 mM SA at 96 h
  PR-1a (relative induction): 1.02

## O=C(O)c1cccc(Cl)c1O [3-Chlorosalicylic acid]
[1]
  Percent decrease in TMV-lesion diameter: 55.1%

## COc1ccc(C(=O)O)c(O)c1 [4-Methoxysalicylic acid]
[1]
  Percent decrease in TMV-lesion diameter: 17.6%

## Nc1ccc(C(=O)O)c(O)c1 [4-Aminosalicylic acid]
[1]
  Percent decrease in TMV-lesion diameter: 22.9%

## O=C(O)c1ccc(Cl)cc1O [4-Chlorosalicylic acid, reference compound]
[1]
  Percent decrease in TMV-lesion diameter: 30.2%

## O=C(O)c1ccccc1F [2-Fluorobenzoic acid]
[2]
  PR-1a induction, result in words: significantly reduced activity

## O=C(O)c1cccc([N+](=O)[O-])c1O [3-Nitrosalicylic acid]
[2]
  PR-1a induction, result in words: decreased activity
